Measurements as given in PubChem BioAssay AID2060894 (Molecular Pharmacology Branch, DTP, NCI, 2025).
Several values for one entry are separate records, joined by “and”; a condition that tells them apart may be missing. Identical values can stand only once.

Tested on: K12877-001-R-J1-PDC complex spheroid viability
Assay: Anticancer human tumor K12877-001-R-J1-PDC patient-derived lung adenocarcinoma cell line growth inhibition [RAS]
Settings: for viability, T/C: stronger effect = lower value
Method in brief: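 Agents were tested in combination matrices in half-log decrements from a top concentration at or near clinical Cmax (10 microM if undetermined). Targets were multi-cell spheroids of tumour lines plus HUVEC and MSC stromal cells.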
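Note: spheroids exposed to agents for one week before readout.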
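Throughout, for viability, T/C: tumour cells co-cultured with HUVEC and mesenchymal stem cells in spheroids.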

## NC1c2ccccc2OC12CCN(c1cnc3c(N4CCCc5ncccc54)n[nH]c3n1)CC2 (stereo unspecified) + CCn1c(-c2cccnc2C(C)OC)c2c3cc(ccc31)N1CCOC(CC(NC(=O)C(C(C)C)N(C)C(=O)C3(F)CCN(C(=O)C#CC(C)(C)N(C)C)CC3)C(=O)N3CCCC(N3)C(=O)OCC(C)(C)C2)C1
Curve of first compound, second compound 0.000949 µM
  IC50: 580 nM
Curve of first compound, second compound 0.003 µM
  IC50: 509 nM
Curve of first compound, second compound 0.00949 µM
  IC50: 225 nM
Curve of first compound, second compound 0.03 µM
  IC50: 145 nM
Curve of first compound, second compound 0.0949 µM
  IC50: 136 nM
Curve of first compound, second compound 0.3 µM
  IC50: 67.7 nM
Second compound 0.000949 µM, first compound 0.0316 µM
  viability, T/C: 69%
Second compound 0.000949 µM, first compound 0.1 µM
  viability, T/C: 67.8%
Second compound 0.000949 µM, first compound 0.316 µM
  viability, T/C: 56%
Second compound 0.000949 µM, first compound 1 µM
  viability, T/C: 43.8%
Second compound 0.000949 µM, first compound 3.16 µM
  viability, T/C: 38.5%
Second compound 0.000949 µM, first compound 10 µM
  viability, T/C: 34%
Second compound 0.003 µM, first compound 0.0316 µM
  viability, T/C: 65.8%
Second compound 0.003 µM, first compound 0.1 µM
  viability, T/C: 62.2%
Second compound 0.003 µM, first compound 0.316 µM
  viability, T/C: 52.5%
Second compound 0.003 µM, first compound 1 µM
  viability, T/C: 45.4%
Second compound 0.003 µM, first compound 3.16 µM
  viability, T/C: 37%
Second compound 0.003 µM, first compound 10 µM
  viability, T/C: 30%
Second compound 0.00949 µM, first compound 0.0316 µM
  viability, T/C: 76.9%
Second compound 0.00949 µM, first compound 0.1 µM
  viability, T/C: 54.1%
Second compound 0.00949 µM, first compound 0.316 µM
  viability, T/C: 49.5%
Second compound 0.00949 µM, first compound 1 µM
  viability, T/C: 38.5%
Second compound 0.00949 µM, first compound 3.16 µM
  viability, T/C: 37.6%
Second compound 0.00949 µM, first compound 10 µM
  viability, T/C: 28.9%
Second compound 0.03 µM, first compound 0.0316 µM
  viability, T/C: 65.9%
Second compound 0.03 µM, first compound 0.1 µM
  viability, T/C: 50.9%
Second compound 0.03 µM, first compound 0.316 µM
  viability, T/C: 44.9%
Second compound 0.03 µM, first compound 1 µM
  viability, T/C: 39.3%
Second compound 0.03 µM, first compound 3.16 µM
  viability, T/C: 34.5%
Second compound 0.03 µM, first compound 10 µM
  viability, T/C: 30.8%
Second compound 0.0949 µM, first compound 0.0316 µM
  viability, T/C: 62.4%
Second compound 0.0949 µM, first compound 0.1 µM
  viability, T/C: 52.1%
Second compound 0.0949 µM, first compound 0.316 µM
  viability, T/C: 41.8%
Second compound 0.0949 µM, first compound 1 µM
  viability, T/C: 38.3%
Second compound 0.0949 µM, first compound 3.16 µM
  viability, T/C: 39.1%
Second compound 0.0949 µM, first compound 10 µM
  viability, T/C: 27.4%
Second compound 0.3 µM, first compound 0.0316 µM
  viability, T/C: 58.3%
Second compound 0.3 µM, first compound 0.1 µM
  viability, T/C: 46.9%
Second compound 0.3 µM, first compound 0.316 µM
  viability, T/C: 35%
Second compound 0.3 µM, first compound 1 µM
  viability, T/C: 29.1%
Second compound 0.3 µM, first compound 3.16 µM
  viability, T/C: 29.8%
Second compound 0.3 µM, first compound 10 µM
  viability, T/C: 22.8%

## CC1(O)CCCC1n1c(=O)c(C(F)F)cc2cnc(NC3CCN(S(C)(=O)=O)CC3)nc21 (stereo unspecified) + C=CC(=O)N1CCN(c2nc(OCC3CCCN3C)nc3c(F)c(-c4nc(N)cc(C)c4C(F)(F)F)c(Cl)cc23)C(C)C1
Curve of first compound, second compound 0.00316 µM
  IC50: 4030 nM
Curve of first compound, second compound 0.01 µM
  IC50: 1190 nM
Curve of first compound, second compound 0.0316 µM
  IC50: 1640 nM
Curve of first compound, second compound 0.1 µM
  IC50: 1290 nM
Curve of first compound, second compound 0.316 µM
  IC50: 710 nM
Curve of first compound, second compound 1 µM
  IC50: 745 nM
Second compound 0.00316 µM, first compound 0.0316 µM
  viability, T/C: 105%
Second compound 0.00316 µM, first compound 0.1 µM
  viability, T/C: 79.9%
Second compound 0.00316 µM, first compound 0.316 µM
  viability, T/C: 68.2%
Second compound 0.00316 µM, first compound 1 µM
  viability, T/C: 64%
Second compound 0.00316 µM, first compound 3.16 µM
  viability, T/C: 71.9%
Second compound 0.00316 µM, first compound 10 µM
  viability, T/C: 2.13%
Second compound 0.01 µM, first compound 0.0316 µM
  viability, T/C: 96.1%
Second compound 0.01 µM, first compound 0.1 µM
  viability, T/C: 75.3%
Second compound 0.01 µM, first compound 0.316 µM
  viability, T/C: 49.5%
Second compound 0.01 µM, first compound 1 µM
  viability, T/C: 68.7%
Second compound 0.01 µM, first compound 3.16 µM
  viability, T/C: 34.4%
Second compound 0.01 µM, first compound 10 µM
  viability, T/C: 2.51%
Second compound 0.0316 µM, first compound 0.0316 µM
  viability, T/C: 88.1%
Second compound 0.0316 µM, first compound 0.1 µM
  viability, T/C: 84.9%
Second compound 0.0316 µM, first compound 0.316 µM
  viability, T/C: 56.4%
Second compound 0.0316 µM, first compound 1 µM
  viability, T/C: 63.1%
Second compound 0.0316 µM, first compound 3.16 µM
  viability, T/C: 43.9%
Second compound 0.0316 µM, first compound 10 µM
  viability, T/C: 2.83%
Second compound 0.1 µM, first compound 0.0316 µM
  viability, T/C: 94.5%
Second compound 0.1 µM, first compound 0.1 µM
  viability, T/C: 78.7%
Second compound 0.1 µM, first compound 0.316 µM
  viability, T/C: 59.2%
Second compound 0.1 µM, first compound 1 µM
  viability, T/C: 53.1%
Second compound 0.1 µM, first compound 3.16 µM
  viability, T/C: 48.4%
Second compound 0.1 µM, first compound 10 µM
  viability, T/C: 2.13%
Second compound 0.316 µM, first compound 0.0316 µM
  viability, T/C: 102%
Second compound 0.316 µM, first compound 0.1 µM
  viability, T/C: 71.1%
Second compound 0.316 µM, first compound 0.316 µM
  viability, T/C: 58.7%
Second compound 0.316 µM, first compound 1 µM
  viability, T/C: 45.3%
Second compound 0.316 µM, first compound 3.16 µM
  viability, T/C: 41.2%
Second compound 0.316 µM, first compound 10 µM
  viability, T/C: 2.43%
Second compound 1 µM, first compound 0.0316 µM
  viability, T/C: 95%
Second compound 1 µM, first compound 0.1 µM
  viability, T/C: 80.7%
Second compound 1 µM, first compound 0.316 µM
  viability, T/C: 43.7%
Second compound 1 µM, first compound 1 µM
  viability, T/C: 60.7%
Second compound 1 µM, first compound 3.16 µM
  viability, T/C: 42.2%
Second compound 1 µM, first compound 10 µM
  viability, T/C: 2.22%

## CCN1CCN(Cc2ccc(Nc3ncc(F)c(-c4cc(F)c5nc(C)n(C(C)C)c5c4)n3)nc2)CC1
Compound 0.00316 µM
  viability, T/C: 104% (2×) and 108% and 116%
Compound 0.01 µM
  viability, T/C: 96.5% [middle of 4 runs]
Compound 0.0316 µM
  viability, T/C: 100% [middle of 4 runs]
Compound 0.1 µM
  viability, T/C: 103% [middle of 4 runs]
Compound 0.316 µM
  viability, T/C: 123% [middle of 4 runs]
Compound 1 µM
  viability, T/C: 96.6% [middle of 4 runs]
Curve of compound
  IC50: > 1000 nM
